# Data from article PMC6934184, “Selective DNA-PKcs inhibition extends the therapeutic index of localized radiotherapy and chemotherapy” (The Journal of Clinical Investigation, 2019).
# Test system: Calu-6 subcutaneous xenografts
# Test: subcutaneous Calu-6 xenograft with fractionated radiation (4 × 5 Gy)
# Assay type: in vivo, mouse
# Details: 30 mg/kg oral 30 min before and 5 h after each of 4 × 5 Gy; CD-1 nude mice
# Procedure: To examine the effect of NU5455 treatment on efficacy versus a late radiation toxicity, a total dose of 20 Gy of thoracic radiation was administered either to CD-1 nude mice bearing subcutaneous Calu-6 tumors or to non–tumor-bearing C57BL/6 mice, as four 5-Gy fractions given on days 1, 4, 7, and 10. This fractionated regimen was adapted from an existing method ([30]), resulting in focal areas of lung fibrosis at 24 weeks following treatment, but at a level that would enable any exacerbation of fibrosis to be readily detected.
# Figure 5 NU5455 augments the effect of fractionated radiotherapy in Calu-6 tumors without enhancing late radiation damage to the lung. (A) Mean tumor volume of mice bearing Calu-6 subcutaneous xenografts treated with localized radiation (4 × 5 Gy on days 1, 4, 7, and 10) with either NU5455 (30 mg/kg orally) or vehicle 30 minutes before and 5 hours after each dose of IR (3–5 mice per group). The time taken to reach 2 times the tumor volume at the start of treatment (RTV2) was also assessed. […] Samples were scored using the modified Ashcroft system on a scale of 0 to 8 (5–9 mice per group). […] Statistical significance was assessed using a log-rank test (A) and 1-way ANOVA (B). *P < 0.05, **P < 0.01, ****P < 0.0001.
smiles,measurement,value
CN(C(=O)CN1CCOCC1)c1ccc2sc3c(-c4cccc5c(=O)cc(N6CC7CCC(C6)O7)oc45)cccc3c2c1 [NU5455],time taken for tumors to double in volume (RTV2),increase the time taken
